In ChEMBL document CHEMBL1201862, “PubChem BioAssay data set” (2004):
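Step 1: Grow cells in 96-well plates. Step 2: Expose to compound for 48 hours at 5 concentrations. Step 3: Interpolate endpoints linearly; if unreached, use highest concentration. The concentration for 50% growth inhibition is given as GI50.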 Activity calls are given as the source filed them. Cut-off read from the data, not from the text of the source: active = GI50 up to about 1.1 µM and inactive = higher.

Key:
Test in all cases: NCI-60 cell line screen, 48 h
XF498 = system: XF498
KM-20L2 = system: KM-20L2
DMS-114 = system: DMS-114
SNB-78 = system: SNB-78
DMS-273 = system: DMS-273
LXFL 529 = system: LXFL 529
M19-MEL = system: M19-MEL
DLD-1 = system: DLD-1
RXF 631 = system: RXF 631

Compound | GI50 (XF498) | GI50 (KM-20L2) | GI50 (DMS-114) | GI50 (SNB-78) | GI50 (DMS-273) | GI50 (LXFL 529) | GI50 (M19-MEL) | GI50 (DLD-1) | GI50 (RXF 631)
N#CC1(Cc2ccccc2Cl)c2ccccc2C=CN1C(=O)c1ccccc1 (centres undefined) | 40.1 µM (inactive) | > 100 µM (inactive) | 96.8 µM (inactive) | > 100 µM (inactive) | > 100 µM (inactive) | 43.1 µM (inactive) | > 100 µM (inactive) |  | 
N#Cc1ccccc1Sc1ccccc1N | 92 µM (inactive) |  | 49.1 µM (inactive) | > 100 µM (inactive) | > 100 µM (inactive) | 61.5 µM (inactive) | > 100 µM (inactive) | 93.1 µM (inactive) | 
FC(F)(F)C1(Cl)C(c2ccccc2)=C1c1ccccc1 | 13.6 µM (inactive) | 16.2 µM (inactive) | 12.9 µM (inactive) | 15.6 µM (inactive) | 14.3 µM (inactive) | 13.4 µM (inactive) | 14.6 µM (inactive) | 14.8 µM (inactive) | 15.1 µM (inactive)
COC(=O)C1C(OCc2ccccc2)C2CCC1(OC)C=C2C (centres undefined) | > 45.1 µM (inactive) | > 100 µM (inactive) | > 57.1 µM (inactive) | > 100 µM (inactive) | > 55.3 µM (inactive) | 59 µM (inactive) | > 58.3 µM (inactive) | > 100 µM (inactive) | 
O=C1SC(c2ccccc2)(c2ccccc2)c2ccccc21 | > 100 µM (inactive) | 46.8 µM (inactive) | 26 µM (inactive) | > 100 µM (inactive) | > 100 µM (inactive) | > 100 µM (inactive) | > 100 µM (inactive) | 52.8 µM (inactive) | 
c1ccc2c(c1)cc(C1NCCc3nc[nH]c31)c1ccccc12 (centres undefined) | 22.5 µM (inactive) | 56.5 µM (inactive) | > 47.2 µM (inactive) | > 86.5 µM (inactive) | 29.7 µM (inactive) | 41.3 µM (inactive) | 29.6 µM (inactive) | 63.8 µM (inactive) | 50.8 µM (inactive)
[N-]=[N+]=NC1(c2ccccc2)C(=O)C(Cl)=C(c2ccccc2)N(c2ccccc2)C1=O (centres undefined) |  | > 100 µM (inactive) | 46.2 µM (inactive) | 31.4 µM (inactive) | > 100 µM (inactive) | 91.6 µM (inactive) | > 100 µM (inactive) | > 100 µM (inactive) | 
O=C(O)C(CS)NCc1c2ccccc2[n+]([O-])c2ccccc12 (centres undefined) |  | 37.2 µM (inactive) | 22.8 µM (inactive) | 38 µM (inactive) | 31.6 µM (inactive) | 23.8 µM (inactive) | 33.6 µM (inactive) | 31.6 µM (inactive) | 37.6 µM (inactive)
CC(C)(C)NNC(=O)CCn1[nH]c(=O)c(Cl)c(Cl)c1=O | > 100 µM (inactive) | > 100 µM (inactive) | > 100 µM (inactive) |  | > 100 µM (inactive) | > 100 µM (inactive) | > 100 µM (inactive) | > 100 µM (inactive) | > 100 µM (inactive)
CC(C)OP(=O)(OC(C)C)/C(=N/Nc1ccc([N+](=O)[O-])cc1)NNC(=O)c1ccccc1 | 24.8 µM (inactive) | 48.4 µM (inactive) | 21.8 µM (inactive) | 24.4 µM (inactive) | > 10 µM (inactive) | 20 µM (inactive) | 20.9 µM (inactive) | 39.2 µM (inactive) | 
Cc1nc(=O)[nH]c2[nH][nH]c(=O)c12 |  |  | > 100 µM (inactive) |  |  | > 100 µM (inactive) | > 100 µM (inactive) |  | 
O=C1NC2(CCCC2)C(=O)C12CCCC2 | > 100 µM (inactive) |  |  | > 100 µM (inactive) | > 100 µM (inactive) | > 100 µM (inactive) | > 100 µM (inactive) | > 100 µM (inactive) | > 100 µM (inactive)
C#CCOCn1cnc2ncnc(N)c21 | > 100 µM (inactive) |  | > 100 µM (inactive) | > 100 µM (inactive) | > 100 µM (inactive) |  | > 100 µM (inactive) | > 100 µM (inactive) | 
CC(=O)N(C)OC(=O)CC(=O)c1ccccc1 | > 100 µM (inactive) | > 100 µM (inactive) | > 100 µM (inactive) | > 100 µM (inactive) | > 100 µM (inactive) | > 100 µM (inactive) | > 100 µM (inactive) | > 100 µM (inactive) | > 100 µM (inactive)
CSc1ccc(/C=C2\CNC/C(=C\c3ccc(SC)cc3)C2=O)cc1 | 8 µM (inactive) |  | 34 µM (inactive) |  |  | 21.2 µM (inactive) |  |  | 22.6 µM (inactive)
C=CC[P@]1(=O)O[C@H](c2ccccc2)[C@H](C)N1C |  |  | > 100 µM (inactive) | > 100 µM (inactive) | > 100 µM (inactive) | > 100 µM (inactive) | > 100 µM (inactive) | > 100 µM (inactive) | 
COc1ccccc1NC(=O)C1=C(C)NC(C)=C(C(=O)Nc2ccccc2OC)C1c1ccc(C2C(C(=O)Nc3ccccc3OC)=C(C)NC(C)=C2C(=O)Nc2ccccc2OC)cc1 | 2.21 µM (inactive) | 1.71 µM (inactive) | 3.52 µM (inactive) | 4.16 µM (inactive) | 2.32 µM (inactive) | 1.89 µM (inactive) | 3.15 µM (inactive) | 1.22 µM (inactive) | 3.46 µM (inactive)
Cc1cc(N(CC(C)Br)CC(C)Br)ccc1/N=N/c1ccccc1C(=O)O (centres undefined) | 1.95 µM (inactive) | 8.75 µM (inactive) | 1.22 µM (inactive) | 11.1 µM (inactive) | 4.59 µM (inactive) |  | 12.2 µM (inactive) | 3.93 µM (inactive) | 
COC(=O)N/N=C(\C)C(CN(C)C)C(c1ccccc1)c1c(O)c2ccccc2oc1=O (centres undefined) | > 100 µM (inactive) | > 100 µM (inactive) | > 100 µM (inactive) | > 100 µM (inactive) | > 100 µM (inactive) | > 100 µM (inactive) | > 100 µM (inactive) | > 100 µM (inactive) | 
O=C1C=CC(=O)c2c1ccc1c3ccccc3n(-c3ccccc3)c21 | 0.535 µM (active) | 17 µM (inactive) | 16.9 µM (inactive) | 20.3 µM (inactive) | 15.2 µM (inactive) | 3.53 µM (inactive) | 16.5 µM (inactive) | 2.26 µM (inactive) | 25.4 µM (inactive)
O=C(CCc1n[nH]c(=S)o1)Nc1ccc(Cl)cc1Cl |  | > 100 µM (inactive) | > 100 µM (inactive) | > 100 µM (inactive) | 30.8 µM (inactive) | > 100 µM (inactive) | > 100 µM (inactive) | > 100 µM (inactive) | > 100 µM (inactive)
CC(=O)O[C@H]1C(=O)[C@@]2(C)C(C(OC(=O)c3ccccc3)[C@]3(O)C[C@H](OC(=O)C(OC(=O)CCCC(=O)NCCCN(C)C)C(NC(=O)c4ccccc4)c4ccccc4)C(C)=C1C3(C)C)C1(OC(C)=O)COC1C[C@@H]2O (some centres undefined) | < 0.01 µM (active) | < 0.01 µM (active) | < 0.01 µM (active) | 2.49 µM (inactive) | < 0.01 µM (active) | < 0.01 µM (active) | < 0.01 µM (active) | 0.0194 µM (active) | 0.0355 µM (active)
